Source: patent US20250313546A1, “NUCLEIC ACID BINDERS” (UNIVERSITY OF STRATHCLYDE, priority 2022, published 2025)
Values after ≈ are worked out from the molar mass of the structure shown. Where two headings read alike, the source gives them in different places.

Assays:
[1] = test system: Enterococcus faecalis (ATCC 51299); test: Antibacterial MIC, broth microdilution (CLSI); type: cell-based; details: Enterococcus faecalis, ATCC51299; read-out: MIC80 E. faecalis
[2] = test system: Escherichia coli (ATCC 25922); test: Antibacterial MIC, broth microdilution (CLSI); type: cell-based; details: Escherichia coli, ATCC25922; read-out: MIC80 E. coli
Aspergillus fumigatus = test: Expanded set of filamentous fungi, MIC broth microdilution (CLSI); type: cell-based
Fusarium oxysporum = test: as above; type: cell-based; details: MIC at 50% inhibition
Fusarium solani = test: as above; type: cell-based; details: MIC at 50% inhibition
Paecilomyces variotii = test: as above; type: cell-based; details: isolate MYA-3630, MIC at 50% inhibition
Rhizopus arrhizus = test: as above; type: cell-based
Blastomyces dermatitidis = test: as above; type: cell-based
Candida parapsilosis = test: Expanded set of yeasts, MIC broth microdilution (CLSI); type: cell-based; details: MIC at 50% inhibition; for MIC50: Lodderomyces parapsilosis
C. albicans = test: as above; type: cell-based; details: MIC at 50% inhibition; for MIC50: Candida albicans
C. auris = test: as above; type: cell-based; details: MIC at 50% inhibition
C. glabrata = test: as above; type: cell-based; details: Nakaseomyces glabratus, MIC at 50% inhibition
C. guilliiermondii = test: as above; type: cell-based; details: MIC at 50% inhibition
[3] = test system: Genomic double stranded DNA (salmon); test: Fluorescence intercalator displacement (FID) assay, SYBR-safe probe; details: 20 μM compound, 30° C., lower % = stronger binding
Summary of the method: (§1)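 Probe displacement was measured at 30 °C in 1 mM phosphate pH 7.4 containing SybrSafe (12500-fold dilution), 3.76 ng/mL nucleic acid (salmon dsDNA or polyAU dsRNA) and 20 μM compound. Fluorescence loss is normalised between probe-only and probe-plus-nucleic-acid controls.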

[4] = test system: PolyAU double stranded RNA; test: as above; details: 20 μM compound, 30° C., lower % = stronger binding
Summary of the method: as §1

C. albicans (ATCC 90028) = details: Candida albicans, ATCC90028, read-out: MIC99 C. albicans
C. neoformans (F10025) = details: Cryptococcus neoformans, read-out: MIC99 C. neoformans
[5] = test system: A. fumigatus A1160 (MFIG001); details: Aspergillus fumigatus, read-out: MIC99 A. fumigatus A1160
Candida auris (H.17.157) = details: Candidozyma auris, read-out: MIC99 Candida auris
[6] = test system: Candida glabrata (ACPF3309); details: Nakaseomyces glabratus, read-out: MIC99 Candida glabrata
Description: The Minimum Inhibitory Concentration (MIC, at 99% inhibition) of the compounds was determined using the broth microdilution method as recommended by EUCAST (EUCAST Definitive Document E.DEF 9.3.2, Method for the determination of broth dilution minimum inhibitory concentrations of antifungal agents for conidia forming moulds and EUCAST Definitive Document E.DEF 7.3.2 Method for the determination of broth dilution minimum inhibitory concentrations of antifungal agents for yeasts).

[7] = test system: Scedosporium prolificans (F2746); details: Lomentospora prolificans, read-out: MIC99 Scedosporium prolificans

Structure (SMILES): [H]/N=C(\CCNC(=O)c1cc(NC(=O)c2cc(NC(=O)c3ccc(C=Cc4ccc(N(C)C)cc4)nc3)cn2C)cn1C)NC [Ia9, (E)-6-(4-(dimethylamino)styryl)-N-(5-((5-((3-imino-3-(methylamino)propyl)carbamoyl)-1-methyl-1H-pyrrol-3-yl)carbamoyl)-1-methyl-1H-pyrrol-3-yl)nicotinamide]
- MIC80 [1]: 25 to 100 µM (≈ 14.9 to 59.6 µg/mL)
- MIC80 [2]: > 100 µM
- MIC50 (Aspergillus fumigatus; isolate AF293, MIC at 50% inhibition): 1 to 8 µg/mL (≈ 1.68 to 13.4 µM)
- MIC50 (Aspergillus fumigatus; isolate DI15-106, MIC at 50% inhibition): 1 to 8 µg/mL (≈ 1.68 to 13.4 µM)
- MIC50 (Aspergillus fumigatus; isolate DI15-116, MIC at 50% inhibition): 1 to 8 µg/mL (≈ 1.68 to 13.4 µM)
- MIC50 (Aspergillus fumigatus; isolate DI19-187, MIC at 50% inhibition): 1 to 8 µg/mL (≈ 1.68 to 13.4 µM)
- MIC50 (Aspergillus fumigatus; isolate DI19-230, MIC at 50% inhibition): 1 to 8 µg/mL (≈ 1.68 to 13.4 µM)
- MIC50 (Aspergillus fumigatus; isolate DI19-231, MIC at 50% inhibition): 1 to 8 µg/mL (≈ 1.68 to 13.4 µM)
- MIC50 (Aspergillus fumigatus; isolate DI19-232, MIC at 50% inhibition): 1 to 8 µg/mL (≈ 1.68 to 13.4 µM)
- MIC50 (Aspergillus fumigatus; isolate DI19-233, MIC at 50% inhibition): 1 to 8 µg/mL (≈ 1.68 to 13.4 µM)
- MIC50 (Aspergillus fumigatus; isolate DI19-234, MIC at 50% inhibition): 1 to 8 µg/mL (≈ 1.68 to 13.4 µM)
- MIC50 (Aspergillus fumigatus; isolate DI19-236, MIC at 50% inhibition): 1 to 8 µg/mL (≈ 1.68 to 13.4 µM)
- MIC50 (Aspergillus fumigatus; isolate DI19-237, MIC at 50% inhibition): 1 to 8 µg/mL (≈ 1.68 to 13.4 µM)
- MIC50 (Aspergillus fumigatus; isolate DI20-95, MIC at 50% inhibition): 1 to 8 µg/mL (≈ 1.68 to 13.4 µM)
- MIC50 (Aspergillus fumigatus; isolate DI20-103, MIC at 50% inhibition): 1 to 8 µg/mL (≈ 1.68 to 13.4 µM)
- MIC50 (Fusarium oxysporum; Fusarium oxysporum, isolate F2): ≤ 1 µg/mL
- MIC50 Fusarium oxysporum (Fusarium oxysporum; isolate F3): *** (*** means MIC50 <= 1 μg/mL)
- MIC50 (Fusarium solani; Fusarium solani, isolate F4): ≤ 1 µg/mL
- MIC50 Fusarium solani (Fusarium solani; isolate DI19-284): *** (*** means MIC50 <= 1 μg/mL)
- MIC50 (Paecilomyces variotii): 1 to 8 µg/mL (≈ 1.68 to 13.4 µM)
- MIC50 (Rhizopus arrhizus; isolate 99-880, MIC at 50% inhibition): 1 to 8 µg/mL (≈ 1.68 to 13.4 µM)
- MIC50 (Rhizopus arrhizus; isolate 99-892, MIC at 50% inhibition): 1 to 8 µg/mL (≈ 1.68 to 13.4 µM)
- MIC50 (Rhizopus arrhizus; isolate RA3, MIC at 50% inhibition): 1 to 8 µg/mL (≈ 1.68 to 13.4 µM)
- MIC50 (Blastomyces dermatitidis; isolate BD1, MIC at 50% inhibition): 1 to 8 µg/mL (≈ 1.68 to 13.4 µM)
- MIC50 (Blastomyces dermatitidis; isolate BD2, MIC at 50% inhibition): 1 to 8 µg/mL (≈ 1.68 to 13.4 µM)
- MIC50 (Blastomyces dermatitidis; isolate BD3, MIC at 50% inhibition): 1 to 8 µg/mL (≈ 1.68 to 13.4 µM)
- MIC50 (Candida parapsilosis; ATCC22019, isolate ATCC 22019, read-out: MIC50 Candida parapsilosis): 1 to 8 µg/mL (≈ 1.68 to 13.4 µM)
- MIC50 (Candida parapsilosis; isolate CP1, read-out: MIC50 C. parapsilosis): 1 to 8 µg/mL (≈ 1.68 to 13.4 µM)
- MIC50 C. parapsilosis (Candida parapsilosis; isolate CP2): ** (** means 1 μg/mL < MIC50 <= 8 μg/mL)
- MIC50 C. parapsilosis (Candida parapsilosis; isolate CP3): ** (** means 1 μg/mL < MIC50 <= 8 μg/mL)
- MIC50 (C. albicans; isolate CA3): 1 to 8 µg/mL (≈ 1.68 to 13.4 µM)
- MIC50 (C. albicans; isolate SC5314): 1 to 8 µg/mL (≈ 1.68 to 13.4 µM)
- MIC50 C. albicans (C. albicans; isolate CA90028): ** (** means 1 μg/mL < MIC50 <= 8 μg/mL)
- MIC50 (C. auris; Candidozyma auris, isolate DI17-47): 1 to 8 µg/mL (≈ 1.68 to 13.4 µM)
- MIC50 C. auris (C. auris; isolate DI17-46): ** (** means 1 μg/mL < MIC50 <= 8 μg/mL)
- MIC50 C. auris (C. auris; isolate DI17-48): ** (** means 1 μg/mL < MIC50 <= 8 μg/mL)
- MIC50 (C. glabrata; isolate 05-62): 1 to 8 µg/mL (≈ 1.68 to 13.4 µM)
- MIC50 (C. glabrata; isolate 05-761): ≤ 1 µg/mL
- MIC50 (C. glabrata; isolate CG3): 1 to 8 µg/mL (≈ 1.68 to 13.4 µM)
- MIC50 (C. guilliiermondii; isolate Cgui1): 1 to 8 µg/mL (≈ 1.68 to 13.4 µM)
- MIC50 C. guilliiermondii (C. guilliiermondii; isolate Cgui2): ** (** means 1 μg/mL < MIC50 <= 8 μg/mL)
- MIC50 C. guilliiermondii (C. guilliiermondii; isolate Cgui3): ** (** means 1 μg/mL < MIC50 <= 8 μg/mL)
- % Normalised Fluorescence with gDNA [3]: 13%
- % Normalised Fluorescence with polyAU RNA [4]: 19%
- MIC99 (C. albicans (ATCC 90028)): 5 to 25 µg/mL (≈ 8.39 to 42 µM)
- MIC99 (C. neoformans (F10025)): < 5 µg/mL
- MIC99 [5]: 5 to 25 µg/mL (≈ 8.39 to 42 µM)
- MIC99 (Candida auris (H.17.157)): > 50 µg/mL
- MIC99 [6]: 5 to 25 µg/mL (≈ 8.39 to 42 µM)
- MIC99 [7]: 5 to 25 µg/mL (≈ 8.39 to 42 µM)
